Test results reported in publication PMC10906241, “Molecular Insights into O-Linked Sialoglycans Recognition by the Siglec-Like SLBR-N (SLBRUB10712) of Streptococcus gordonii” (ACS Central Science, 2024).

Target: SLBR-N (SLBRUB10712) (Streptococcus mitis, UniProt A0A6I8WFK9)
Test: ITC
Settings: single-site binding model

Chain of SLBR-N (SLBRUB10712) (A0A6I8WFK9 entry or part of it): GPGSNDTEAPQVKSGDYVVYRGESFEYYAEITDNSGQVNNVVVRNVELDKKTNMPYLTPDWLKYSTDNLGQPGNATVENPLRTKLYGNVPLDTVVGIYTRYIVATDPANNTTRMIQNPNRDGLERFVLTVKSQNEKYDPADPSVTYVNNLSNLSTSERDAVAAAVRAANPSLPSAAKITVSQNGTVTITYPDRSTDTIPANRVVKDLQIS

## CC(=O)N[C@H]1[C@H](OC[C@H]2O[C@H](O[C@H](C)[C@H](N)C(=O)O)[C@H](NC(C)=O)[C@@H](O[C@@H]3O[C@H](CO)[C@H](O)[C@H](O[C@]4(C(=O)O)C[C@H](O)[C@@H](NC(C)=O)[C@H]([C@H](O)[C@H](O)CO)O4)[C@H]3O)[C@H]2O)O[C@H](CO)[C@@H](O[C@@H]2O[C@H](CO)[C@H](O)[C@H](O[C@]3(C(=O)O)C[C@H](O)[C@@H](NC(C)=O)[C@H]([C@H](O)[C@H](O)CO)O3)[C@H]2O)[C@@H]1O [compound 5, ligand 5]
  Kd: 15.1 ± 1.13 µM
